Experimental data from patent US11839614B2, “Methods for treating or mitigating cardiotoxicity characterized by inhibition of adenosine A2 signaling and/or adenosine A2 receptor expression” (INTRA-CELLULAR THERAPIES, INC., priority 2018, dated 2023).
Structures can show the parent of a compound that is named as a salt.

Experiments:
adult rabbit myocytes = experiment: Contraction and calcium transients in isolated rabbit cardiomyocytes; assay type: cell-based; details: for decay kinetics / relaxation times / peak-Ca2+ transient / percent sarcomere shortening: agent alone: Cil 1 μM, Compound 1 1 μM, Iso non-saturating dose
Description: To test whether PDE1 inhibition directly impacts cardiomyocyte contraction and calcium transients, studies are carried out on normal adult rabbit myocytes. […] As PDE1 requires sufficient cAMP and Ca^2+ to be impactful, a dose response was performed to the adenylate cyclase activator, forskolin (FSK) to determine the lowest dose producing a modest but significant inotropic effect (1 μM).
Rabbit myocytes were isolated to determine the effect of PDE1 inhibition on cardiomyocyte contraction and whole cell Ca2+ transients, and to compare the results to those with a PDE3 inhibitor, cilostamide (Cil, 1 μM).
An alternative approach to augmenting cAMP independent of […] is to directly stimulate adenylate cyclase using forskolin (Fsk). A dose response study was carried out to identify a non-saturating Fsk dose that still generated significant inotropic effects (1 μM).

myocyte cAMP = experiment: Whole cell cAMP in isolated rabbit myocytes; assay type: cell-based
From the text: This is consistent with prior studies showing locally generated cAMP from β-AR and its modulation by PDE3 occur in local subcellular domains that are not easily detected in whole cell lysates32.

plasma cAMP and cGMP = experiment: Plasma cAMP and cGMP by ELISA in dogs; assay type: in vivo, dog
Description: Blood plasma is obtained from these animals, and cAMP and cGMP are assayed by ELISA.

[1] = system: normal and failing canine hearts; experiment: Conscious dog pressure-volume hemodynamic analysis, normal and failing hearts; assay type: in vivo; details: dobutamine 10 μg/kg/min alone
From the text: Dogs are studied in the conscious state before and after inducing dilated cardiomyopathy by tachypacing for two weeks at 200 bpm. […]
Load insensitive indexes of contractility (dP/dtmax/IP and PRSW) increased.

[2] = system: rabbit heart and vasculature; experiment: Anesthetized rabbit pressure-volume hemodynamics with or without esmolol or MRS-1754; assay type: in vivo; details: for effect of blocker on Compound 1 responses: atrially paced, fixed heart rate; for impact of inhibitor pre-treatment alone on cardiovascular hemodynamics: rabbit, in vivo
From the text: Cyclic AMP is generated largely by transmembrane adenylyl cyclases activated via stimulatory G protein (Gs), with β-adrenergic, adenosine (primarily A2B), glucagon, prostanoids, histamine, and serotonin all coupling to Gs in cardiomyocytes. The present studies focus on beta-adrenergic and adenosine receptors, and for the latter, concentrated on the A2B receptor, which has been reported to directly stimulate cAMP-dependent contractility. […] Relaxation changes are also modest with LV preload (end-diastolic and volume) unaltered; however, the combined vasodilator-inotropic response doubled ventricular/arterial coupling ratio, Ees/Ea.
New Zealand White rabbits (male, 2-3 kg) are sedated with 35 mg/kg ketamine and 5 mg/kg xylazine, intubated and ventilated (Model 683, Harvard Apparatus, Holliston, Mass.), with anesthesia maintained with isoflurane inhalation (1-2%). A pressure-volume catheter (SPR-894, Millar, Inc., Houston, Tex.) is inserted via the common carotid artery and advanced to the LV apex, and a 2-Fr pacing catheter is positioned in the right atrium via the right jugular vein to provide atrial pacing. […] The parallel conductance is determined by the hypertonic saline injection method. Rabbits are infused with 6% hetastarch in saline during the procedure to stabilize arterial pressure.

[3] = agent added to non-saturating Iso
[4] = agent alone: Iso 50 nM, Compound 1 up to 1 mM, IBMX 100 μM

SMILES: CN(C(=O)CCCOc1ccc2[nH]c(=O)ccc2c1)C1CCCCC1 [Cil, cilostamide]
- Ca2+ transient decay rate (adult rabbit myocytes; agent added to Fsk 1 μM): faster decay of the Ca2+ transient
- peak Ca2+ transient (adult rabbit myocytes; agent added to Fsk 1 μM): increase
- sarcomere shortening (adult rabbit myocytes; agent added to Fsk 1 μM): increase in sarcomere shortening
- peak-Ca2+ (adult rabbit myocytes; [3]): remained elevated over baseline
- sarcomere shortening (adult rabbit myocytes; [3]): further increased sarcomere shortening
- decay kinetics / relaxation times (adult rabbit myocytes): accelerated
- peak-Ca2+ transient (adult rabbit myocytes): rose
- percent sarcomere shortening (adult rabbit myocytes): rose
- whole cell cAMP (myocyte cAMP; agent added to Fsk): unaltered
- whole cell cAMP (myocyte cAMP; agent alone): did not measurably increase whole cell cAMP
- whole cell cAMP (myocyte cAMP; agent combined with Iso): did not measurably increase whole cell cAMP

SMILES: CC(CCc1ccc(O)cc1)NCCc1ccc(O)c(O)c1 (centres unmarked) [Dobutamine, dobutamine, reference compound]
- plasma cAMP (plasma cAMP and cGMP; HF dogs, single drugs): not significantly changed
- plasma cGMP (plasma cAMP and cGMP; all conditions, normal and HF models): remains unchanged
- plasma cAMP (plasma cAMP and cGMP; normal dogs): augmented plasma cAMP
- PV loop area (stroke work) [1]: increased PV loop area

SMILES: CC(C)Cn1c(=O)n(C)c(=O)c2[nH]cnc21 [IBMX]
- contraction/calcium decay time or rates (adult rabbit myocytes; [4]): increased
- peak Ca2+ transient (adult rabbit myocytes; [4]): did not alter peak calcium transients
- sarcomere shortening (adult rabbit myocytes; [4]): increased shortening

SMILES: CCCn1c(=O)c2[nH]c(-c3ccc(OCC(=O)Nc4ccc(C#N)cc4)cc3)nc2n(CCC)c1=O [MRS-1754, reference compound]
- effect of blocker on cardiovascular responses to Compound 1 (heart rate, contractility, vasodilation) ([2]; MRS-1754 1 mg/kg iv before Compound 1 0.1 mg/kg): eliminated all of the cardiovascular responses to Compound 1
- effect of blocker on Compound 1 responses [2]: fully blocked
- impact of inhibitor pre-treatment alone on cardiovascular hemodynamics [2]: Neither inhibitor pre-treatment alone has a significant impact

SMILES: COC(=O)CCc1ccc(OCC(O)CNC(C)C)cc1 (centres unmarked) [esmolol, esmolol HCl, reference compound]
- effect of blocker on Compound 1 responses [2]: unaltered
- block of cardiac responses to 10 μg/kg/min dobutamine ([2]; esmolol 0.5 mg/kg bolus then 0.05 mg/kg/min): effectively blocked
- impact of inhibitor pre-treatment alone on cardiovascular hemodynamics [2]: Neither inhibitor pre-treatment alone has a significant impact

SMILES: C=C[C@@]1(C)CC(=O)[C@]2(O)[C@@]3(C)[C@@H](O)CCC(C)(C)[C@@H]3[C@H](O)[C@H](OC(C)=O)[C@@]2(C)O1 [forskolin]
- lowest (non-saturating) dose producing a modest but significant inotropic effect (adult rabbit myocytes; dose response): 1 µM

SMILES: CC(C)NCC(O)c1ccc(O)c(O)c1 (centres unmarked) [isoproterenol]
- decay kinetics / relaxation times (adult rabbit myocytes): quickened relaxation times
- peak-Ca2+ transient (adult rabbit myocytes): increased
- percent sarcomere shortening (adult rabbit myocytes): increased
- contraction/calcium decay time or rates (adult rabbit myocytes; [4]): accelerates the decay time of both
- peak Ca2+ transient (adult rabbit myocytes; [4]): increases
- sarcomere shortening (adult rabbit myocytes; [4]): increases
- whole cell cAMP (myocyte cAMP; agent alone): did not measurably increase whole cell cAMP
